Experimental data: US8455397B2, “Penoxsulam as a turfgrass, vineyard and orchard floor herbicide” (Dow AgroSciences, LLC, priority 2005, dated 2013)

How the values were obtained:
[1] = tested on: buckhorn plantain (PLALA); test: Postemergent granule herbicides, turfgrass field studies; type: in vivo, Plantago lanceolata L.; settings: Table I, 3 sites, Penoxsulam 140 gai/Ha, Scotts Plus 2 1682+841 gae/Ha, Trimec 1121+516+112 gae/Ha
Description: (§1) Field studies were conducted in established turfgrass sites containing a natural population of target broadleaf weeds. Replicated trials, containing a minimum of three replications and having individual plots ranging in size from 25 to 50 ft. sq (2.3 to 4.6 square meters), were initiated in the late spring when turf and weeds were actively growing. Granule treatments were uniformly applied to individual plots using a common hand-shaker method. Applications were made in the early morning when dew was present. Natural rainfall and supplemental irrigation were used to maintain healthy turf and active weed growth throughout the study period. Control of each weed species in the study site was made at 2, 4 and 8 weeks after treatment. Control was determined visually by comparing treated and untreated weeds and scored on a 0 to 100 percent scale where 0 corresponds to no control and 100 corresponds to complete kill.

[2] = tested on: broadleaf plantain (PLAMA); test: as above; type: in vivo, Plantago major L.; settings: Table I, 2 sites, Penoxsulam 140 gai/Ha, Scotts Plus 2 1682+841 gae/Ha, Trimec 1121+516+112 gae/Ha
Description: as §1

[3] = tested on: Virginia buttonweed (DIQVI); test: as above; type: in vivo, Diodia virginiana L.; settings: Table III, 1 site
Description: as §1

[4] = tested on: broadleaf plantain (PLAMA); test: Granule carrier/particle size, post emergence greenhouse study; type: in vivo, Plantago major L.; settings: postemergent greenhouse
Description: (§2) Greenhouse and field studies evaluated the effect of two granule carriers and two particles sizes on the postemergent broadleaf activity of penoxsulam. The two carriers were a 46-0-0 and 28-4-12 fertilizer blend and the particle sizes averaged 0.75 mm and 2.15 mm.
(§3) Greenhouse studies were applied both post and pre-emergence to broadleaf weeds and sedge reared from seed or nutlet in 12.7″ (32.25 cm) by 8.8″ (22.35 cm) flats of a loam soil. Particle size and carrier were evaluated post emergence, carrier comparisons with the smaller particle size of 0.75 was evaluated pre-emergence. Stage of growth of species at post emergence application: PLAMA and TAROF in the 3 to 5 leaf stage, TRFRE in the 3rd tri-foliate stage and CYPES in the 3 to 4 leaf stage. Post emergence trial design was a replicated block, one species per flat, 3 replicate flats per treatment. Granule treatments were uniformly applied to individual flats on an area basis using a common hand-shaker method. Post emergence applications were made to the flat covering both soil and misted foliage. Trial was sub-irrigated daily, and watered over the top 1 time per week starting 7 days after application to simulate a natural rainfall event. Active weed growth was maintained throughout the study period. Weed control of each species in the post emergence study was assessed at 2, 3 and 4 weeks after treatment. Pre-emergence trial design was 2 species per flat, 4 replicate flats, block design. Pre-emergence applications were made to the soil surface using a common hand shaker method on an area basis. Overhead irrigation was maintained throughout the trial. Weed control of each species in the pre-emergence study was assessed at 2, 3, 4 and 5 weeks after application. Control was determined visually by comparing treated and untreated flats and scored on a 0 to 100 percent scale where 0 corresponds to no control and 100 corresponds to complete kill.

yellow nutsedge (CYPES) [5] = test: as above; type: in vivo, Cypres esculentus L.; settings: postemergent greenhouse
Description: as §2, §3

wild mustard (SINAR) = test: Pre-emergence orchard floor weeds, greenhouse study; type: in vivo, Sinapsis arvense; settings: 28 Days After Application
Description: (§4) Greenhouse studies were conducted by seeding species in a loam soil and applying the herbicides to the soil surface using a Cornwall 5 milliliter glass syringe fitted with a TeeJet TN-3 nozzle on an area basis Immediately following herbicide application the pots were irrigated over the top to move the herbicides into the seeding zone. Pots were kept well irrigated throughout the trial. A percent visual weed control assessment was taken 4 weeks after application. Control was determined visually by comparing treated and untreated pots and scored on a 0 to 100 percent scale where 0 corresponds to no control and 100 corresponds to complete kill, or no emergence.

common groundsel (SENVU) = test: as above; type: in vivo, Senecio vulgaris; settings: 28 Days After Application
Description: as §4

yellow nutsedge (CYPES) [6] = test: Pre-emergence weed nursery field study; type: in vivo, Cypres esculentus L.; settings: weed nursery in the field, 27 Days After Application
Description: (§5) Field studies were conducted in a non-fumigated weed nursery trial. Weed species were planted in single strips with a row planter at 36 centimeter spacing. Plot size was 3.05×9.2 meters, 4 replicate plots per treatment. Weed species were seeded at appropriate depths and later the same day pre-emergent applications were made to the soil surface. Liquid applications were made using a backpack sprayer calibrated to deliver 187 liters per hectare (L/ha). Applications were made in Fresno, Calif. in June. Sprinkler irrigation was applied at regular intervals throughout study period. Control of each weed species in the study site was made 4 weeks after treatment. Control was determined visually by comparing treated and untreated weeds and scored on a 0 to 100 percent scale where 0 corresponds to no control and 100 corresponds to complete kill or no emergence.

junglerice (ECHCO) = test: Pre-emergence weed nursery field study; type: in vivo, Echinochloa colonum; settings: weed nursery in the field, 27 Days After Application
Description: as §5

turfgrass = settings: in vivo
[7] = carrier 28-4-12, particle size 0.75 mm, 5.6 gai/Ha
[8] = carrier 28-4-12, particle size 0.75 mm, 11.2 gai/Ha
[9] = carrier 28-4-12, particle size 0.75 mm, 22.4 gai/Ha
[10] = carrier 28-4-12, particle size 2.15 mm, 5.6 gai/Ha
[11] = carrier 28-4-12, particle size 2.15 mm, 11.2 gai/Ha
[12] = carrier 28-4-12, particle size 2.15 mm, 22.4 gai/Ha
[13] = carrier 46-0-0, particle size 0.75 mm, 5.6 gai/Ha
[14] = carrier 46-0-0, particle size 0.75 mm, 11.2 gai/Ha
[15] = carrier 46-0-0, particle size 0.75 mm, 22.4 gai/Ha
[16] = carrier 46-0-0, particle size 2.15 mm, 5.6 gai/Ha
[17] = carrier 46-0-0, particle size 2.15 mm, 11.2 gai/Ha
[18] = carrier 46-0-0, particle size 2.15 mm, 22.4 gai/Ha

Structure (SMILES): COc1cnc(OC)n2nc(NS(=O)(=O)c3c(OCC(F)F)cccc3C(F)(F)F)nc12 [Penoxsulam, 2-(2,2-difluoroethoxy)-N-(5,8-dimethoxy[1,2,4]triazolo[1,5-c]-pyrimidin-2-yl)-6-(trifluoromethyl)benzenesulfonamide]
- Mean Percent Weed Control ([1]; 4 Weeks After Treatment): 53%
- Mean Percent Weed Control ([1]; 8 Weeks After Treatment): 62%
- Mean Percent Weed Control ([2]; 4 Weeks After Treatment): 81%
- Mean Percent Weed Control ([2]; 8 Weeks After Treatment): 87%
- Mean Percent Weed Control ([3]; 4 Weeks After Treatment, 22.4 gai/Ha): 67%
- Mean Percent Weed Control ([3]; 4 Weeks After Treatment, 44.9 gai/Ha): 76%
- Mean Percent Weed Control ([3]; 4 Weeks After Treatment, 67.3 gai/Ha): 93%
- Mean Percent Weed Control ([3]; 4 Weeks After Treatment, 100 gai/Ha): 92%
- Mean Percent Weed Control ([3]; 8 Weeks After Treatment, 22.4 gai/Ha): 48%
- Mean Percent Weed Control ([3]; 8 Weeks After Treatment, 44.9 gai/Ha): 63%
- Mean Percent Weed Control ([3]; 8 Weeks After Treatment, 67.3 gai/Ha): 87%
- Mean Percent Weed Control ([3]; 8 Weeks After Treatment, 100 gai/Ha): 78%
- Percent Weed Control 27-30 DAA [4, 7]: 35%
- Percent Weed Control 27-30 DAA [4, 8]: 75%
- Percent Weed Control 27-30 DAA [4, 9]: 96%
- Percent Weed Control 27-30 DAA [4, 10]: 0%
- Percent Weed Control 27-30 DAA [4, 11]: 27%
- Percent Weed Control 27-30 DAA [4, 12]: 38%
- Percent Weed Control 27-30 DAA [4, 13]: 47%
- Percent Weed Control 27-30 DAA [4, 14]: 77%
- Percent Weed Control 27-30 DAA [4, 15]: 97%
- Percent Weed Control 27-30 DAA [4, 16]: 8%
- Percent Weed Control 27-30 DAA [4, 17]: 15%
- Percent Weed Control 27-30 DAA [4, 18]: 50%
- Percent Weed Control 27-30 DAA (yellow nutsedge (CYPES) [5]; [7]): 18%
- Percent Weed Control 27-30 DAA (yellow nutsedge (CYPES) [5]; [8]): 37%
- Percent Weed Control 27-30 DAA (yellow nutsedge (CYPES) [5]; [9]): 60%
- Percent Weed Control 27-30 DAA (yellow nutsedge (CYPES) [5]; [10]): 37%
- Percent Weed Control 27-30 DAA (yellow nutsedge (CYPES) [5]; [11]): 25%
- Percent Weed Control 27-30 DAA (yellow nutsedge (CYPES) [5]; [12]): 35%
- Percent Weed Control 27-30 DAA (yellow nutsedge (CYPES) [5]; [13]): 18%
- Percent Weed Control 27-30 DAA (yellow nutsedge (CYPES) [5]; [14]): 30%
- Percent Weed Control 27-30 DAA (yellow nutsedge (CYPES) [5]; [15]): 65%
- Percent Weed Control 27-30 DAA (yellow nutsedge (CYPES) [5]; [16]): 3%
- Percent Weed Control 27-30 DAA (yellow nutsedge (CYPES) [5]; [17]): 20%
- Percent Weed Control 27-30 DAA (yellow nutsedge (CYPES) [5]; [18]): 42%
- Pre-emergent Percent Mean Control (wild mustard (SINAR); 8.8 gai/Ha): 79%
- Pre-emergent Percent Mean Control (wild mustard (SINAR); 17.5 gai/Ha): 91%
- Pre-emergent Percent Mean Control (wild mustard (SINAR); 35 gai/Ha): 98%
- Pre-emergent Percent Mean Control (wild mustard (SINAR); 70 gai/Ha): 98%
- Pre-emergent Percent Mean Control (common groundsel (SENVU); 8.8 gai/Ha): 95%
- Pre-emergent Percent Mean Control (common groundsel (SENVU); 17.5 gai/Ha): 100%
- Pre-emergent Percent Mean Control (common groundsel (SENVU); 35 gai/Ha): 100%
- Pre-emergent Percent Mean Control (common groundsel (SENVU); 70 gai/Ha): 100%
- Pre-emergent Percent Mean Control (yellow nutsedge (CYPES) [6]; 8.8 gai/Ha): 69%
- Pre-emergent Percent Mean Control (yellow nutsedge (CYPES) [6]; 17.5 gai/Ha): 81%
- Pre-emergent Percent Mean Control (yellow nutsedge (CYPES) [6]; 35 gai/Ha): 88%
- Pre-emergent Percent Mean Control (yellow nutsedge (CYPES) [6]; 70 gai/Ha): 94%
- Pre-emergent Percent Mean Control (junglerice (ECHCO); 8.8 gai/Ha): 88%
- Pre-emergent Percent Mean Control (junglerice (ECHCO); 17.5 gai/Ha): 94%
- Pre-emergent Percent Mean Control (junglerice (ECHCO); 35 gai/Ha): 100%
- Pre-emergent Percent Mean Control (junglerice (ECHCO); 70 gai/Ha): 100%
- damage to mature, well-established turfgrass (turfgrass): acceptable or no damage
